Assay [1] has as its target T1, human RORγt ligand binding domain (RORγt LBD) (Homo sapiens, UniProt P51449).
T1 construct: His-tag (N); TurboTEV protease cleavage site (ENLYFQG) (N); made in house; host or cells: E. coli (pHIS1, modified pET vector)
T1 sequence (P51449 258-518): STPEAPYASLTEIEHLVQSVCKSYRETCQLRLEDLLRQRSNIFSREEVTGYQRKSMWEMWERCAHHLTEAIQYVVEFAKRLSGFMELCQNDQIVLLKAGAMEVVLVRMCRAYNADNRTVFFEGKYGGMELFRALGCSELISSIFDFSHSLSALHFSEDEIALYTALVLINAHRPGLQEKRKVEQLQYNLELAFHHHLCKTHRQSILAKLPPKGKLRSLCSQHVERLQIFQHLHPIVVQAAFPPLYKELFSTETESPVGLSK
Kind of assay: ThermoFluor® Assay (RORγt thermal shift binding). The following applies: 0.065 mg/mL RORγt, 60 µM 1,8-ANS, pH 7.0; estimated from concentration response curves. The method, then:
This approach is applicable to a wide variety of systems, and rigorous in theoretical interpretation through quantitation of equilibrium binding constants (KD).
The shift in the melting point described as a ΔTm is proportional to the concentration and affinity of the ligand. The compound potency may be compared as a rank order of either ATm values at a single compound concentration or in terms of KD values, estimated from concentration response curves.
ThermoFluor® experiments were carried out using instruments owned by Janssen Research and Discovery, L.L.C. through its acquisition of 3-Dimensional Pharmaceuticals, Inc. 1,8-ANS (Invitrogen) was used as a fluorescent dye. Protein and compound solutions are dispensed into black 384-well polypropylene PCR microplates (Abgene) and overlayed with silicone oil (1 µL, Fluka, type DC 200) to prevent evaporation.
Bar-coded assay plates are robotically loaded onto a thermostatically controlled PCR-type thermal block and then heated at a typical ramp-rate of 1 °C/minute for all experiments. Fluorescence was measured by continuous illumination with UV light (Hamamatsu LC6) supplied via fiber optic and filtered through a band-pass filter (380-400 nm; >6 OD cutoff). Fluorescence emission of the entire 384-well plate was detected by measuring light intensity using a CCD camera (Sensys, Roper Scientific) filtered to detect 500 ± 25 nm, resulting in simultaneous and independent readings of all 384 wells. Images were collected at each temperature, and the sum of the pixel intensity in a given area of the assay plate was recorded versus temperature. Reference wells contained RORyt without compounds, and the assay conditions were as follows: • 0.065 mg/mL RORγt • 60 µM 1,8-ANS • 100 mM Hepes, pH 7.0 • 10 mM NaCl • 2.5 mM GSH • 0.002% Tween-20
Project compounds were arranged in a pre-dosed mother plate (Greiner Bio-one) wherein compounds are serially diluted in 100% DMSO by 1:2 from a high concentration of 10 mM over 12 columns within a series (column 12 is a reference well containing DMSO, no compound). The compounds were robotically dispensed directly into assay plates (1x = 46 nL) using a Hummingbird capillary liquid handling instrument (Digilab). Following compound dispense, protein and dye in buffer was added to achieve the final assay volume of 3 µL, followed by 1 µL of silicone oil.

The target of assay [2] is T2, human RORγt LBD (Homo sapiens, UniProt P51449).
T2 construct: expressed in transfected cells; host or cells: HEK293T
T2 sequence (P51449 258-518): T1 sequence (P51449 258-518)
Kind of assay: RORγt (LBD) Reporter Assay (GAL4 luciferase, HEK293T cells). It is filed as cell-based. The following applies: for inhibition at 6 µM: HEK-293T, 6 µM compound; for pIC50: compounds for 24 hours. The method, then:
Compounds were assessed for RORgt functional modulation using either the RORgt ligand binding domain (LBD) reporter assay, or the RORgt full-length (FL) reporter assay.
A reporter assay was used to test functional activity of RORγt modulatory compounds on transcriptional activation driven by the RORγt LBD. Cells used in the assay were co-transfected with two constructs. The first construct, pBIND-RORγt LBD, contained the wild type human RORγt LBD fused to the DNA binding domain of the GAL4 protein. The second construct, pGL4.31 (Promega Cat no. C935A), contained multiple GAL4 responsive DNA elements upstream of firefly luciferase. […] The mutant construct was called pBIND-RORγt-AF2.
The pBIND vector contains the GAL4 DNA Binding Domain (GAL4 DBD) and the renilla luciferase gene under control of the SV40 promoter. Renilla luciferase expression serves as a control for transfection efficiency and cell viability.
The reporter assay was performed by transiently transfecting HEK293T cells with 5 µg of pBIND-RORγt LBD or pBIND-RORγt LBD-AF2 and 5 µg pGL4.31 (Promega Cat no. C935A) using Fugene 6 (Invitrogen Cat no. E2691) at a 1:6 ratio of DNA: Fugene 6 in a T-75 flask in which cells were at least 80% confluent. Twenty four hours after bulk transfection, cells were plated into 96-well plates at 50,000 cells/well in phenol-red free DMEM containing 5% Lipid Reduced FCS and Pen/Strep. Six hours after plating, cells were treated with compounds for 24 hours. Media was removed and cells were lysed with 50 µL 1x Glo Lysis Buffer (Promega). Dual Glo Luciferase Reagent (50 µL/well) was then added and firefly luciferase luminescence was read on an Envision after a ten minute incubation. Finally, Stop and Glo reagent (50 µL/well) was added and renilla luciferase luminescence was read on an Envision after a ten minute incubation. To calculate the effect of compounds on RORγt activity, the ratio of firefly to renilla luciferase was determined and plotted against compound concentration. Agonist compounds increase RORγt-driven luciferase expression, and antagonist or inverse agonist compounds decrease luciferase expression.
In general terms: In a reporter assay the amount or activity of a reporter protein is the signal.

pIC50, pKd: −log10 of the molar value. Counter-ions that a name gives are not always drawn. Bounds are passed on as bounds.

As to `COc1nc2c(C)cc(C(O)c3cncn3C)cc2c(Cl)c1Cc1ccc(-n2cccn2)cc1` (stereo not drawn) [Example 12, (3-(4-(1H-Pyrazol-1-yl)benzyl)-4-chloro-2-methoxy-8-methylquinolin-6-yl)(1-methyl-1H-imidazol-5-yl)methanole•TFA], the pKd in assay [1] was 6.22. In assay [2], the inhibition at 6 µM is 92% and the pIC50 is roughly 6.00.

For the compound `Cc1ncc(C(O)c2ccc3nc(Cl)c(-c4ccccc4)c(Cl)c3c2)n1C` (stereo not drawn) [Example 13, (2,4-Dichloro-3-phenylquinolin-6-yl)(1,2-dimethyl-1H-imidazol-5-yl)methanol], in assay [1], the pKd was 5.92. In addition, in assay [2], the inhibition at 6 µM was 43% and the negative logarithm of the IC50 (pIC50) was less than 5.22.

Turning to `COc1nc2ccc(C(O)c3cnc(C)n3C)cc2c(Cl)c1Cc1ccc(C(F)(F)F)cc1` (stereo not drawn) [Example 15a, (4-Chloro-2-methoxy-3-(4-(trifluoromethyl)benzyl)quinolin-6-yl)(1,2-dimethyl-1H-imidazol-5-yl)methanol], the pKd in assay [1] is 7.13. Also, in assay [2], the inhibition at 6 µM amounted to 101% and the pIC50 is 7.37.

For `COc1nc2ccc(C(O)c3ccc(C)nc3C)cc2cc1Cc1ccc(C(F)(F)F)cc1` (stereo not drawn) [Example 16, (2,6-Dimethylpyridin-3-yl)(2-methoxy-3-(4-(trifluoromethyl)benzyl)quinolin-6-yl)methanol], the pKd in assay [1] was 5.32. Besides, in assay [2], the inhibition at 6 µM came to 88% and the pIC50 was 5.72.

As for `COc1nc2ccc(C(O)c3cnnn3C)cc2c(Cl)c1Cc1ccc(C(F)(F)F)cc1` (stereo not drawn) [Example 17a, (4-Chloro-2-methoxy-3-(4-(trifluoromethyl)benzyl)quinolin-6-yl)(1-methyl-1H-1,2,3-triazol-5-yl)methanol], in assay [1], the pKd was 7.19. In assay [2], the inhibition at 6 µM stood at 99% and the negative-log IC50 (pIC50) was 6.51.

As for `COc1nc2ccc(C(O)c3cncn3C)cc2c(Cl)c1Cc1ccc(C(F)(F)F)cc1` (stereo not drawn) [Example 18a, (4-Chloro-2-methoxy-3-(4-(trifluoromethyl)benzyl)quinolin-6-yl)(1-methyl-1H-imidazol-5-yl)methanol], the pKd in assay [1] is 6.62. For the same compound, in assay [2], the inhibition at 6 µM amounted to 96% and the pIC50 was 6.42.

For the compound `COc1nc2ccc(C(O)c3oc(C)nc3C)cc2c(Cl)c1Cc1ccc(C(F)(F)F)cc1` (stereo not drawn) [Example 19, (4-Chloro-2-methoxy-3-(4-(trifluoromethyl)benzyl)quinolin-6-yl)(2,4-dimethyloxazol-5-yl)methanol], the pKd in assay [1] is 6.46. In addition, in assay [2], the inhibition at 6 µM is 79% and the pIC50 is 6.62.

For the compound `Cc1ncc(C(O)c2ccc3nc(N4CCC4)c(Cc4ccc(-n5cccn5)cc4)c(Cl)c3c2)n1C` (stereo not drawn) [Example 21a, {2-Azetidin-1-yl-4-chloro-3-[4-(1H-pyrazol-1-yl)benzyl]quinolin-6-yl)(1,2-dimethyl-1H-imidazol-5-yl)methanol], the pKd in assay [1] is 6.70. In addition, in assay [2], the inhibition at 6 µM is 91% and the pIC50 was 6.42.

Consider `Cc1ncc(C(O)c2ccc3nc(N4CCC4)c(Cc4ccc(C(F)(F)F)cc4)c(Cl)c3c2)n1C` (stereo not drawn) [Example 22a, {2-Azetidin-1-yl-4-chloro-3-[4-(trifluoromethyl)benzyl]quinolin-6-yl}(1,2-dimethyl-1H-imidazol-5-yl)methanol], for which the negative logarithm of the Kd (pKd) in assay [1] was 7.09. Moreover, in assay [2], the inhibition at 6 µM worked out at 92% and the pIC50 was 6.60.

Take `Cc1ccc(C(O)c2ccc3nc(N4CCC4)c(Cc4ccc(C(F)(F)F)cc4)c(Cl)c3c2)c(C)n1` (stereo not drawn) [Example 23a, {2-Azetidin-1-yl-4-chloro-3-[4-(trifluoromethyl)benzyl]quinolin-6-yl}(2,6-dimethylpyridin-3-yl)methanol]: in assay [1], the pKd was 6.85. Also, in assay [2], the inhibition at 6 µM came to 95% and the negative logarithm of the IC50 (pIC50) was 6.74.

As to `OC(c1ccncc1)c1ccc2nc(Cl)c(Cc3ccccc3)c(Cl)c2c1` (stereo not drawn) [Example 24, (3-Benzyl-2,4-dichloroquinolin-6-yl)(pyridin-4-yl)methanole•TFA], in assay [1], the pKd is 6.64. Further, in assay [2], the inhibition at 6 µM was determined as 41% and the pIC50 is less than 5.22.

For `OC(c1ccncc1)c1ccc2nc(Cl)c(-c3ccccc3)c(Cl)c2c1` (stereo not drawn) [Example 25, (2,4-Dichloro-3-phenylquinolin-6-yl)(pyridin-4-yl)methanol•TFA], the negative logarithm of the Kd (pKd) in assay [1] was 5.92. Besides, in assay [2], the inhibition at 6 µM came to 47% and the pIC50 is less than 5.22.

`OC(c1ccc(Cl)cc1)c1ccc2nc(Cl)c(-c3ccccc3Cl)c(Cl)c2c1` (stereo not drawn) [Example 26, (4-Chlorophenyl)(2,4-dichloro-3-(2-chlorophenyl)quinolin-6-yl)methanol]: the negative logarithm of the Kd (pKd) in assay [1] is 5.85. In assay [2], the inhibition at 6 µM turned out to be 68% and the pIC50 is roughly 5.52.

`COc1nc2ccc(C(O)C3CN(C(=O)OC(C)(C)C)C3)cc2c(Cl)c1Cc1ccc(C(F)(F)F)cc1` (stereo not drawn) [Example 32, tert-Butyl-3-((4-chloro-2-methoxy-3-(4-(trifluoromethyl)benzyl)quinolin-6-yl)(hydroxy)methyl)azetidine-1-carboxylate]: in assay [1], the pKd was 4.80. Further, in assay [2], the inhibition at 6 µM was found to be 84% and the negative-log IC50 (pIC50) was 5.66.

With `OC(c1ccc(Cl)cc1)c1ccc2nc(Cl)c(-c3ccccc3)c(Cl)c2c1` (stereo not drawn) [Example 35, (4-Chlorophenyl)(2,4-dichloro-3-phenylquinolin-6-yl)methanol], the pKd in assay [1] is 4.60. Also, in assay [2], the inhibition at 6 µM was found to be 45% and the pIC50 is less than 5.22.

As usually defined, the pKd is the Kd on a negative log10 scale, so that one unit is a factor of ten. Broadly, the inhibition is the change of the read-out against control, counted positive when it falls. What is called pIC50 is the negative decadic logarithm of the IC50, by convention in mol/L. Read a low pIC50 as a high IC50.

(Values after EP3057949B1, “SECONDARY ALCOHOL QUINOLINYL MODULATORS OF ROR GAMMA T” (Janssen Pharmaceutica NV, priority 2013, dated 2015).)
